Patent publication US12435059B2, “AMP-activated protein kinase inhibitors and methods of making and using the same” (The Regents of the University of Colorado, priority 2019, dated 2025)
Like-named read-outs stand apart in the source and are kept apart here.

Columns and labels:
[1] = molecular target: KIT-autoinhibited (Homo sapiens (Human), UniProt P10721); experiment: Kinome binding analysis at 100 nM, KIT-autoinhibited; settings: read-out: Percentage inhibition at 100 nM, KIT-autoinbibited
[2] = molecular target: AMPK(α2) (Homo sapiens (Human), UniProt P54646); experiment: Kinome binding analysis at 100 nM, AMPK(α2); settings: AMPK-alpha2
AMPK(α2), sequence (P54646 whole entry, looked up): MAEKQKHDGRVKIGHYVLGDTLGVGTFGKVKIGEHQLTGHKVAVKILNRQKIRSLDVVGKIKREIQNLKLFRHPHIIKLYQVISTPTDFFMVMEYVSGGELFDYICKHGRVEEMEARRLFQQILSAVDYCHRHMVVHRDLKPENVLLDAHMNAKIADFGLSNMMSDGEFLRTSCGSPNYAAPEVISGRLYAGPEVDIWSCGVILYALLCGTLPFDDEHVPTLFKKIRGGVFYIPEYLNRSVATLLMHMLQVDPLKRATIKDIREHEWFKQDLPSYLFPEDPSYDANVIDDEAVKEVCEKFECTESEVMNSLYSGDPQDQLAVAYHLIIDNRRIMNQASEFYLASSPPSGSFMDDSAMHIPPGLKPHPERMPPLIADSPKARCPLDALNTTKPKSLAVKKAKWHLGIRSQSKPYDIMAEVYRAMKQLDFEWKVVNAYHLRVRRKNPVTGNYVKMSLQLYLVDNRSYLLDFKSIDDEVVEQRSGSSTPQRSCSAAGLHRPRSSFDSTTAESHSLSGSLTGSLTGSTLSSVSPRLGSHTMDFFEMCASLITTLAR

[3] = molecular target: 468 kinases (Homo sapiens, UniProt P08581); experiment: biochemical; format: binding; settings: MET; read-out: % Inhibition @ 100 nM
[4] = molecular target: 468 kinases (Homo sapiens, UniProt P00519, F317I); experiment: biochemical; format: binding; settings: read-out: % Inhibition @ 100 nM
[5] = molecular target: 468 kinases (Homo sapiens, UniProt P42345); experiment: biochemical; format: binding; settings: MTOR; read-out: % Inhibition @ 100 nM
[6] = molecular target: 468 kinases (Homo sapiens, UniProt Q08345); experiment: biochemical; format: binding; settings: DDR1; read-out: % Inhibition @ 100 nM
[7] = molecular target: 468 kinases (Homo sapiens, UniProt Q9BWU1); experiment: biochemical; format: binding; settings: CDK11; read-out: % Inhibition @ 100 nM
[8] = molecular target: 468 kinases (Homo sapiens, UniProt P00519, Y253F); experiment: biochemical; format: binding; settings: ABL1 (Y253F)-phosphorylated; read-out: % Inhibition @ 100 nM
[9] = molecular target: 468 kinases (Homo sapiens, UniProt Q8IVH8); experiment: biochemical; format: binding; settings: MAP4K3; read-out: % Inhibition @ 100 nM
[10] = molecular target: 468 kinases (Homo sapiens, UniProt Q04771); experiment: biochemical; format: binding; settings: ACVR1; read-out: % Inhibition @ 100 nM
468 kinases (Homo sapiens, UniProt Q04771), sequence (Q04771 21-509 limits assumed): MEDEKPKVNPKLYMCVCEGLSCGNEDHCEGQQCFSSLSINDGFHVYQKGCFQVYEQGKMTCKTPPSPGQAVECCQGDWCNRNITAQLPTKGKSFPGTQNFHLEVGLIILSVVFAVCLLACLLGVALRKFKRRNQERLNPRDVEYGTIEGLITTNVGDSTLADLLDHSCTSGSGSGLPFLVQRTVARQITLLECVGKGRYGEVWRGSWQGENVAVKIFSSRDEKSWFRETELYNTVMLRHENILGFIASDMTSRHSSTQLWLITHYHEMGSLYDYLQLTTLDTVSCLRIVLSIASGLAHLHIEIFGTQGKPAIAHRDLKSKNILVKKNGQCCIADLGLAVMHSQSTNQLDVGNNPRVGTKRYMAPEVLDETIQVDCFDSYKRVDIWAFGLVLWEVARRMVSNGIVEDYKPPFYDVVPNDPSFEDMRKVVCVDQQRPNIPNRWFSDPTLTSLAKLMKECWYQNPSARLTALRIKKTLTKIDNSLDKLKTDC

[11] = molecular target: 468 kinases (Homo sapiens, UniProt P21802); experiment: biochemical; format: binding; settings: FGFR2; read-out: % Inhibition @ 100 nM
[12] = molecular target: 468 kinases (Homo sapiens, UniProt P53350); experiment: biochemical; format: binding; settings: PLK1; read-out: % Inhibition @ 100 nM
[13] = molecular target: 468 kinases (Homo sapiens, UniProt Q9HCP0); experiment: biochemical; format: binding; settings: CSNK1G1; read-out: % Inhibition @ 100 nM
[14] = molecular target: 468 kinases (Homo sapiens, UniProt P42336, H1047Y); experiment: biochemical; format: binding; settings: PIK3CA(H1047Y); read-out: % Inhibition @ 100 nM
[15] = molecular target: 468 kinases (Homo sapiens, UniProt O95835); experiment: biochemical; format: binding; settings: LATS1; read-out: % Inhibition @ 100 nM
[16] = molecular target: 468 kinases (Homo sapiens, UniProt P00519, E255K); experiment: biochemical; format: binding; settings: ABL1 (E255K)-phosphorylated; read-out: % Inhibition @ 100 nM
[17] = molecular target: 468 kinases (Homo sapiens, UniProt Q9H4A3); experiment: biochemical; format: binding; settings: WNK1; read-out: % Inhibition @ 100 nM
[18] = molecular target: 468 kinases (Homo sapiens, UniProt Q9P289); experiment: biochemical; format: binding; settings: MST4; read-out: % Inhibition @ 100 nM
468 kinases (Homo sapiens, UniProt Q9P289), sequence (Q9P289 2-416 limits assumed): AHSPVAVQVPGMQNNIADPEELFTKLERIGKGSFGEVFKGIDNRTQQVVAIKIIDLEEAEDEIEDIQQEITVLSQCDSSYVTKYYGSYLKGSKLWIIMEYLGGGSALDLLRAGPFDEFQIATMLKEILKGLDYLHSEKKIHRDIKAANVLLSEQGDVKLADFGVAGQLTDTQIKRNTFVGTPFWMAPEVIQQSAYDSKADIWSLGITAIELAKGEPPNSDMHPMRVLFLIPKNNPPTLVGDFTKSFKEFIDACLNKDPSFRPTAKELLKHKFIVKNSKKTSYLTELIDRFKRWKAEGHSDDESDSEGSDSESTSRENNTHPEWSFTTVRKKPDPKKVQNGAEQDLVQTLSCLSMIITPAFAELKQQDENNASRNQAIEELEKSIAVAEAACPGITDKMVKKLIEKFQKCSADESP

[19] = molecular target: 468 kinases (Homo sapiens, UniProt P42684); experiment: biochemical; format: binding; settings: ABL2; read-out: % Inhibition @ 100 nM
468 kinases (Homo sapiens, UniProt P42684), sequence (P42684 2-1182 limits assumed): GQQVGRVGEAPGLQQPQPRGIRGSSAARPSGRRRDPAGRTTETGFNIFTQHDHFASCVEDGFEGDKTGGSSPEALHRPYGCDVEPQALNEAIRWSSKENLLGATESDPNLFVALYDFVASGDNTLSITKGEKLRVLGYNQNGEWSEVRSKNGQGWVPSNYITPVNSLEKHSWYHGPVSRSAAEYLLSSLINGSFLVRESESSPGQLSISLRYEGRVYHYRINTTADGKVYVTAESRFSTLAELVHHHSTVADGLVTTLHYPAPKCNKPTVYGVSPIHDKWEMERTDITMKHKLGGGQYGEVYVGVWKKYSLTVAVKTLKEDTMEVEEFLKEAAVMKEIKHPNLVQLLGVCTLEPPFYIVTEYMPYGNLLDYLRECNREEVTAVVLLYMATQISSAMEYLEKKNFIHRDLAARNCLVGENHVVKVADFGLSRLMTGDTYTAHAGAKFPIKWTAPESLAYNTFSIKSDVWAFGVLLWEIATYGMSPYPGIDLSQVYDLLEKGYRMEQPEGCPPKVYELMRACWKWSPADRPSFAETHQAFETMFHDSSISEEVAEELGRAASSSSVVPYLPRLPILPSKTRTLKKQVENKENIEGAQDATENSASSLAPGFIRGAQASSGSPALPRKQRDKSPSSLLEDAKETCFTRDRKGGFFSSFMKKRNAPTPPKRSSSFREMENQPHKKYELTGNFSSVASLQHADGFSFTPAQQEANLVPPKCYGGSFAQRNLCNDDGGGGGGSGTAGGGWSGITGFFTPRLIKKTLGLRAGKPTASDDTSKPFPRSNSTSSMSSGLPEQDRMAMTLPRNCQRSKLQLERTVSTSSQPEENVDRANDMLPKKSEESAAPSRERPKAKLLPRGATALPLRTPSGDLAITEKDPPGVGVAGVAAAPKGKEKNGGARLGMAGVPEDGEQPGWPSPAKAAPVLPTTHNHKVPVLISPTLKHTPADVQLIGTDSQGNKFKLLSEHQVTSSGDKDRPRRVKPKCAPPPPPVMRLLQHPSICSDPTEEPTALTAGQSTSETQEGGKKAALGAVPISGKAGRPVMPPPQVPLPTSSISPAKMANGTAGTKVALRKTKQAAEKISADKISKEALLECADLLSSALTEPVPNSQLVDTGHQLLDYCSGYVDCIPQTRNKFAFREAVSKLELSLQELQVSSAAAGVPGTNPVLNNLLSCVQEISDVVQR

[20] = molecular target: JAK1-JH2 domain pseudokinase (Homo sapiens (Human), UniProt P23458); experiment: Kinome binding analysis at 100 nM, JAK1 JH2 pseudokinase; settings: read-out: Percentage inhibition at 100 nM, JAKI JH2-pseudokinase
JAK1-JH2 domain pseudokinase, sequence (P23458 583-855): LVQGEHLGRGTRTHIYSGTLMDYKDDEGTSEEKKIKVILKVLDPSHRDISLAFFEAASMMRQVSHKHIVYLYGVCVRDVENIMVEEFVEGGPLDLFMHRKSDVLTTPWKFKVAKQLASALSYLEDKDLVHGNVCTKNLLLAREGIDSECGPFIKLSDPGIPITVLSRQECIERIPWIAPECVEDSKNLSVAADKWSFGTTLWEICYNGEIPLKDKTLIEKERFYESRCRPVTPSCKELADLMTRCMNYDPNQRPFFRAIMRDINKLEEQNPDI

[21] = molecular target: BTK (Homo sapiens (Human), UniProt Q06187); experiment: Kinome binding analysis at 100 nM, BTK; settings: for BTK inhibition, in words: 100 nM
BTK, sequence (Q06187 whole entry): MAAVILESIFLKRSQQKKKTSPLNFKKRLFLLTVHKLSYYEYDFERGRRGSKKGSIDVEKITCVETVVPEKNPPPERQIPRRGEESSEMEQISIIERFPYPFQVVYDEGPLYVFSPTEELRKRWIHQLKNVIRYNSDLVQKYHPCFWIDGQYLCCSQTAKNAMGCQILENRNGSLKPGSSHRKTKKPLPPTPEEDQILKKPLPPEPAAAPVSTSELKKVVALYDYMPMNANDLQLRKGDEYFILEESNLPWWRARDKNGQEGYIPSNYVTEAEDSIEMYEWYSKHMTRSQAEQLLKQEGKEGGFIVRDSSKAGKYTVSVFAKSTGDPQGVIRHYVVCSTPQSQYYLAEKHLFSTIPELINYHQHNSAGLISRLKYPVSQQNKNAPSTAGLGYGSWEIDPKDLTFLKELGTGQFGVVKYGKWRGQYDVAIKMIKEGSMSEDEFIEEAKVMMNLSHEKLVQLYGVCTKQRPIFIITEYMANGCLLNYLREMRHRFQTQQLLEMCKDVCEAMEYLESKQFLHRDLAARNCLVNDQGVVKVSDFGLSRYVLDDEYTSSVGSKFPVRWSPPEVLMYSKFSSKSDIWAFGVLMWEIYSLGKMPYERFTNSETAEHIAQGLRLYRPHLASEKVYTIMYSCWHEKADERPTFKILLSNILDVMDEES

[22] = molecular target: KDR (Homo sapiens (Human), UniProt P35968); experiment: LanthaScreen Eu TR-FRET KDR competitive binding assay; settings: read-out: IC50 (nM) KDR; mean±S.D. (n=3); competitive binding
KDR, sequence (P35968 20-1356): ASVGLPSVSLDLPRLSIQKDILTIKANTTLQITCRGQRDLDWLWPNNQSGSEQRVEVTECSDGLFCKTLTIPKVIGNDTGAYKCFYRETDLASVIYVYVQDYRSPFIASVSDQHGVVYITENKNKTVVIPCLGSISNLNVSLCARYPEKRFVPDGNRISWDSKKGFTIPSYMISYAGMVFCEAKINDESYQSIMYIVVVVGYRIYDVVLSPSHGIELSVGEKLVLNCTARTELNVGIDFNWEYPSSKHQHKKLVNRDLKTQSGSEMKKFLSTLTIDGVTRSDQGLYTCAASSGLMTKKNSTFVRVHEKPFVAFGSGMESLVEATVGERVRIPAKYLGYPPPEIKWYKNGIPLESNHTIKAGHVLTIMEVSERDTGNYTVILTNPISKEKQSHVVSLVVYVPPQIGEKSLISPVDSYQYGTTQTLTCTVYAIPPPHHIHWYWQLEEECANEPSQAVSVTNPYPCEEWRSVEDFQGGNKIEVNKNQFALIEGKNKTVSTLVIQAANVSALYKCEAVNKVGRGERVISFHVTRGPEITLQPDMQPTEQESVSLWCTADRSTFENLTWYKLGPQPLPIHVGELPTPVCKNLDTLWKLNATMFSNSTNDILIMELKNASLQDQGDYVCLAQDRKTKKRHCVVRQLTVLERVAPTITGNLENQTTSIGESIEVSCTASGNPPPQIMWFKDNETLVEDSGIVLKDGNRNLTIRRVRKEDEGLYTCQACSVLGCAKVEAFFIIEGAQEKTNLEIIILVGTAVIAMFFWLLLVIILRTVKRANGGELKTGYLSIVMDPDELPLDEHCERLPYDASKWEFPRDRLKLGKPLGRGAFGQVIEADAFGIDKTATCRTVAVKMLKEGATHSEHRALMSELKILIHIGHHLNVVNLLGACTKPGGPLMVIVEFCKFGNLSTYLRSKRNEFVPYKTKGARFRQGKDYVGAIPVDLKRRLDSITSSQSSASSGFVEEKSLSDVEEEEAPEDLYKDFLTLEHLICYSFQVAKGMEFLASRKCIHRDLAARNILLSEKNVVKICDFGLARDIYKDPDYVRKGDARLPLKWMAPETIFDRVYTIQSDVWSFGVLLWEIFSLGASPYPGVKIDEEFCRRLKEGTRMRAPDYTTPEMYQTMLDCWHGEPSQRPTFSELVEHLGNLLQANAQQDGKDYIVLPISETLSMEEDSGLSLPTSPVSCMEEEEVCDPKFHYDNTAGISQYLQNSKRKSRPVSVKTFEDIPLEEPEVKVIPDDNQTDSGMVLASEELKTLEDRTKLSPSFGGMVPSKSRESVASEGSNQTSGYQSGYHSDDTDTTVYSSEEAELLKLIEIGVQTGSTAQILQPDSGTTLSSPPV

[23] = molecular target: FLT1 (Homo sapiens (Human), UniProt P17948); experiment: Kinome binding analysis at 100 nM, FLT1; settings: read-out: Percentage inhibition at 100 nM, FLT1
[24] = molecular target: CSF1R-autoinhibited (Homo sapiens (Human), UniProt P07333); experiment: Kinome binding analysis at 100 nM, CSF1R-autoinhibited; settings: read-out: Percentage inhibition at 100 nM, CSF1R-autoinhibited
[25] = molecular target: 468 kinases (Homo sapiens, UniProt Q6P2M8); experiment: biochemical; format: binding; settings: CAMK1B; read-out: % Inhibition @ 100 nM
[26] = molecular target: 468 kinases (Homo sapiens, UniProt Q13882); experiment: biochemical; format: binding; settings: BRK; read-out: % Inhibition @ 100 nM
[27] = molecular target: 468 kinases (Homo sapiens, UniProt Q9H1R3); experiment: biochemical; format: binding; settings: MYLK2; read-out: % Inhibition @ 100 nM
[28] = molecular target: 468 kinases (Homo sapiens, UniProt Q9UEW8); experiment: biochemical; format: binding; settings: STK39; read-out: % Inhibition @ 100 nM
[29] = molecular target: 468 kinases (Homo sapiens, UniProt Q8TDX7); experiment: biochemical; format: binding; settings: NEK7; read-out: % Inhibition @ 100 nM
[30] = molecular target: 468 kinases (Homo sapiens, UniProt Q16512); experiment: biochemical; format: binding; settings: PKN1; read-out: % Inhibition @ 100 nM
[31] = molecular target: 468 kinases (Homo sapiens, UniProt Q8N752); experiment: biochemical; format: binding; settings: CSNK1A1L; read-out: % Inhibition @ 100 nM
[32] = molecular target: 468 kinases (Homo sapiens, UniProt P31749); experiment: biochemical; format: binding; settings: AKT1; read-out: % Inhibition @ 100 nM

| Compound | inhibition at 0.1 µM [1] [%] | inhibition at 0.1 µM [2] [%] | inhibition at 0.1 µM ([4]; ABL1 (F317I)-phosphorylated) [%] | inhibition at 0.1 µM [5] [%] | inhibition at 0.1 µM [7] [%] | inhibition at 0.1 µM [10] [%] | inhibition at 0.1 µM [11] [%] | inhibition at 0.1 µM [12] [%] | inhibition at 0.1 µM [13] [%] | inhibition at 0.1 µM [14] [%] | inhibition at 0.1 µM [15] [%] | inhibition at 0.1 µM [18] [%] | inhibition at 0.1 µM [19] [%] | inhibition at 0.1 µM [20] [%] | BTK inhibition, in words [21] | IC50 [22] [nM] | also measured |
| --- | --- | --- | --- | --- | --- | --- | --- | --- | --- | --- | --- | --- | --- | --- | --- | --- | --- |
| CCN(CC)CCNC(=O)c1c(C)[nH]c(/C=C2\C(=O)Nc3ccc(CCO)cc32)c1C [Compound No. 10, (Z)—N-(2-(Diethylamino)ethyl)-5-((5-(2-hydroxyethyl)-2-oxoindolin-3-ylidene)methyl)-2,4-dimethyl-1H-pyrrole-3-carboxamide] | 28 | 64 | 0 | 0 | 12 | 0 | 37 | 0 | 0 | 4 | 43 | 0 | 0 | 54 | no observable effect | 848 ± 41 | inhibition at 0.1 µM [3]: 13%; inhibition at 0.1 µM ([4]; ABL1 (F317I)-nonphosphorylated): 8%; inhibition at 0.1 µM [6]: 0%; inhibition at 0.1 µM [8]: 5%; inhibition at 0.1 µM [9]: 74%; inhibition at 0.1 µM [16]: 35%; inhibition at 0.1 µM [17]: 0%; inhibition at 0.1 µM [23]: 42% |
| CCN(CC)CCNC(=O)c1c(C)[nH]c(/C=C2\C(=O)Nc3ccc(CCC(N)=O)cc32)c1C [Compound No. 16, (Z)-5-((5-(3-Amino-3-oxopropyl)-2-oxoindolin-3-ylidene)methyl)-N-(2-(diethylamino)ethyl)-2,4-dimethyl-1H-pyrrole-3-carboxamide] | 0 | 35 | 31 | 6 | 3 | 18 | 1 | 28 | 16 | 28 | 17 | 37 | 3 | 41 | no observable effect | 3820 ± 530 | inhibition at 0.1 µM [24]: 14%; inhibition at 0.1 µM [25]: 30%; inhibition at 0.1 µM [26]: 1%; inhibition at 0.1 µM [27]: 4%; inhibition at 0.1 µM [28]: 12%; inhibition at 0.1 µM [29]: 5%; inhibition at 0.1 µM [30]: 24%; inhibition at 0.1 µM [31]: 6%; inhibition at 0.1 µM [32]: 0%; inhibition at 0.1 µM ([21]; read-out: Percentage inhibition at 100 nM, BTK): 0% |
